Data taken from patent US20120238019A1, “STEM CELL CULTURE MEDIA FOR MAINTAINING STEMNESS OR INDUCING DIFFERENTIATION OF STEM CELLS” (COLLEGE OF MEDICINE POCHON CHA UNIVERSITY INDUSTRY-ACADEMIC …, priority 2011, published 2012).

How the values were obtained:
[1] = test system: human embryonic stem cells (CHA6 cell line); assay: Evaluation of differentiation of stem cells cultured in mTeSR-1 medium containing PKC activator; format: cell-based
Method: Colony clumps (5 colony clumps) of human embryonic stem cells (CHA6 cell line, CHA Medical University, Korea) were seeded to each wells of a 96-well plate coated with Matrigel (BD Biosciences, USA). A undifferentiation-maintaining medium, i.e., mTeSR-1 medium containing bFGF, TGF-beta, LiCl, GABA, and pipecolic acid (StemCell Technologies, USA), was added to the each wells, which were then cultured at about 37° C., in about 5.0% CO2 incubator. The culture was performed for 5 to 7 days, while replacing the medium with a new medium containing 10 nM of 12-O-tetradecanoylphorbol-13-acetate (TPA) as a PKC activator, everyday. As a control, human embryonic stem cells were cultured in the mTeSR-1 medium without the PKC activator. And also, human embryonic stem cells were cultured in the mTeSR-1 medium treated with both 10 nM of TPA and 5 uM of Go6983.
The cells cultured in the mTeSR-1 medium formed colony shapes, which were conglomerating each other, without differentiation (a in FIG. 3).
As a result of alkaline phosphatase staining, the staining level and colony shape of the cells cultured in the mTeSR-1 medium were similar to those of undifferentiated stem cells (d in FIG. 3).

[2] = test system: human embryonic stem cells (CHA6 cell line); assay: Evaluation of differentiation of stem cells in other undifferentiation-maintaining mediums containing PKC activator; format: cell-based; details: FIG. 4
Method: Colony clumps (5 colony clumps) of human embryonic stem cells (CHA6 cell line, CHA Medical University, Korea) were seeded to each wells of a 96-well plate coated with Matrigel (BD Biosciences, USA). […] The culture was performed for 5 to 7 days, while replacing the medium with a new medium containing 10 nM of 12-O-tetradecanoylphorbol-13-acetate (TPA) as a PKC activator, everyday. […]
Evaluations of differentiation were also performed in accordance with the same procedures as in the above (1), using other undifferentiation-maintaining mediums, [i.e., Matrigel (extracellular matrix)/MEF-conditioned medium (Home made; Serum-free media [80% (v/v) DMEM/F12 (GIBCO), 20% (v/v) Knockout serum replacement (GIBCO), 1% (v/v) MEM non-essential amino acids (GIBCO), 0.1 mM β-mercaptoethanol (GIBCO), 1% (v/v) Pennicillin/streptomycin (Caisson)] was conditioned by γ-irradiated CF-1 mouse embryonic fibroblasts (MEF) at 37° C. for 24 hours) and CELLstart (extracellular matrix) (Invitrogen)/and STEMPRO (Invitrogen)], […] In addition, differentiation of other hESC, i.e., H9 hESC line (WiCell, Wis., USA) was also evaluated in the Matrigel (extracellular matrix)/MEF-conditioned medium with a PKC activator.

H9 hESC line = assay: Evaluation of differentiation of H9 hESC line in Matrigel/MEF-conditioned medium with PKC activator; format: cell-based, human; details: FIG. 4
[3] = test system: human embryonic stem cells (CHA6 cell line); assay: Evaluation of stemness of stem cells cultured in MEF medium (differentiation-inducing) containing PKC inhibitor; format: cell-based; details: 5 to 7 days
Method: (§1) Colony clumps (5 colony clumps) of human embryonic stem cells (CHA6 cell line, CHA Medical University, Korea) were seeded to each wells of a 96-well plate coated with Matrigel (BD Biosciences, USA). A differentiation-inducing medium, i.e., MEF medium [Dulbecco's Modified Eagle Medium (DMEM) containing high glucose (WeIGENE, Korea) supplemented with 10% (v/v) FBS (WeIGENE, Korea), 1% (v/v) Penicillin/streptomycin (Caisson), 1% (v/v) NEAA (GIBCO), 0.1 mM beta-mercaptoethanol (GIBCO)], was added to the each wells, which were then cultured at about 37° C., in about 5.0% CO2 incubator. The culture was performed for 5 to 7 days, while replacing the medium with a new medium containing 5 uM of 3-[1-[3-(dimethylamino)propyl]-5-methoxy-1H-indol-3-yl]-4-(1H-indol-3-yl)-1H-pyrrole-2,5-dione)(Gö6983, Calbiochem) as a PKC inhibitor, everyday.
As a control, human embryonic stem cells were cultured in the MEF medium without the PKC inhibitor. And also, human embryonic stem cells were cultured in a differentiation-inhibiting medium, i.e., mTeSR-1 medium containing bFGF, TGF-beta, LiCl, GABA, and pipecolic acid (StemCell Technologies, USA). […]

[4] = test system: human embryonic stem cells (CHA6 cell line); assay: Evaluation of stemness of stem cells cultured in non-conditioned medium containing PKC inhibitor; format: cell-based
Method: as §1, with “The culture was performed for 5 to 7 days, while replacing the medium with a new medium containing 5 uM of 3-[1-[3-(dimethylamino)propyl]-5-methoxy-1H-indol-3-yl]-4-(1H-indol-3-yl)-1H-pyrrole-2,5-dione)(Gö6983, Calbiochem) as a PKC inhibitor, everyday.” left out
Evaluations of stemness were also performed in accordance with the same procedures as in the above (1), using a non-conditioned medium [DMEM/F-12 high-glucose (GIBCO) supplemented with 20% (v/v) knockout serum replacement (GIBCO), 1% (v/v) Penicillin/streptomycin (Caisson), 1% (v/v) NEAA(GIBCO), and 0.1 mM beta-mercaptoethanol (GIBCO)], instead of the MEF medium. In addition, expression levels of Oct4 (Octamer Binding Transcription Factor-4), which is another un-differentiated cell marker, were also evaluated through immunostaining with antibody against Oct4.

SMILES | differentiation, shape and distribution of the cells (optical microscope) ([1]; mTeSR-1 medium, 10 nM TPA replaced everyday, 5 to 7 days, FIG. 3 b) | alkaline phosphatase staining level ([1]; mTeSR-1 medium, 10 nM TPA, FIG. 3 e) | induction of differentiation of hESCs ([2]; CELLstart/STEMPRO medium with PKC activator) | induction of differentiation of hESCs ([2]; Matrigel/MEF-conditioned medium with PKC activator) | induction of differentiation of hESCs (H9 hESC line) | cell shape under co-treatment with PKC activator (inhibition of TPA-induced differentiation) ([1]; mTeSR-1 medium treated with both 10 nM TPA and 5 uM Gö6983, FIG. 3 c and f) | shape, existence and distribution of the cells (optical microscope, nucleus-staining with DAPI) ([3]; 5 uM PKC inhibitor replaced everyday, Matrigel-coated, FIG. 1 a-f) | alkaline phosphatase expression level (un-differentiated cell marker, staining) ([3]; 5 uM PKC inhibitor, FIG. 1 g-i) | alkaline phosphatase expression level ([4]; NCM containing Gö6983, FIG. 2A f) | Oct4 expression level (immunostaining) ([4]; NCM containing Gö6983, FIG. 2B c)
CCCCCCCCCCCCCC(=O)O[C@@H]1[C@@H](C)[C@@]2(O)[C@@H](C=C(CO)C[C@]3(O)C(=O)C(C)=C[C@@H]23)[C@@H]2C(C)(C)[C@]12OC(C)=O [TPA, 12-O-tetradecanoylphorbol-13-acetate] | differentiated and broadly distributed | very low alkaline phosphatase staining level | induced differentiation of hESCs | induced differentiation of hESCs | induction of differentiation by the PKC activator was also observed | – | – | – | – | –
COc1ccc2c(c1)c(C1=C(c3c[nH]c4ccccc34)C(=O)NC1=O)cn2CCCN(C)C [Gö6983, 3-[1-[3-(dimethylamino)propyl]-5-methoxy-1H-indol-3-yl]-4-(1H-indol-3-yl)-1H-pyrrole-2,5-dione] | – | – | – | – | – | shapes similar to undifferentiated stem cells | maintained colony shapes, which were conglomerating each other | significant increase in alkaline phosphatase expression level | significant increases | significant increases
